Measured values from US20230017045A1, “PYRIDINE AND PYRIMIDINE CARBOXYLATE HERBICIDES AND METHODS OF USE THEREOF” (Dow AgroSciences LLC, priority 2017, published 2023).

Tested on: test plant species
Test: Post-emergent herbicidal activity test (greenhouse, foliar spray, visual growth reduction)
Assay type: in vivo
Settings: post-emergence, 336 h, ALOMY: blackgrass (Alopecurus myosuroides), 140 g ai/ha, 14 days after application, read-out: Visual Growth Reduction (%) 14 Days After Application, ALOMY
Method: Post-emergent Test: Seeds or nutlets of the desired test plant species were planted in Sun Gro Metro-Mix® 360 planting mixture, which typically has a pH of 6.0 to 6.8 and an organic matter content of about 30 percent, in plastic pots with a surface area of 64 square centimeters. In some aspects, to ensure good germination and healthy plants, a fungicide treatment and/or other chemical or physical treatment was applied. The plants were grown for 7-21 d in a greenhouse with an approximate 15 h photoperiod which was maintained at 23-29° C. during the day and 22-28° C. during the night. Nutrients and water were added on a regular basis and supplemental lighting was provided with overhead metal halide 1000-Watt lamps as necessary. Plants were used for testing when they reached the first or second true leaf stage. A weighed amount, determined by the highest rate to be tested, of each test compound was placed in a 25 mL glass vial and was dissolved in 4 mL of a 97:3 v/v mixture of acetone and DMSO to obtain concentrated stock solutions. […] The concentrated stock solutions obtained were diluted with 20 mL of an aqueous mixture containing acetone, water, isopropyl alcohol, DMSO, […] crop oil concentrate, and X-77 surfactant in a 48.5:39:10:1.5:1.0:0.02 v/v ratio to obtain spray solutions containing the application rate. Compound requirements are based upon a 12 mL application volume at a rate of 187 liters per hectare (L/ha). Formulated compounds were applied to the plant material with an overhead Mandel track sprayer equipped with […] nozzles calibrated to deliver 187 L/ha over an application area of 0.64 square meters at a spray height of 18 inches (43 cm) above the average plant canopy height. Control plants were sprayed in the same manner with the solvent blank. The treated plants and control plants were placed in a greenhouse as described above and watered by subirrigation to prevent wash-off of the test compounds. After 14 d, the condition of the test plants as compared with that of the nontreated and control plants was determined visually and scored on a scale of 0 to 100 percent where 0 corresponds to no injury and 100 corresponds to complete control. In the reporting of the results, Table A: Percent Growth Reduction Conversion Table was used.

SMILES	pest or weed control at 140 g/ha
COC(=O)c1nc(-c2ccc(C(F)(F)F)cc2Cl)c(O)cc1Cl [F34, methyl 3-chloro-6-(2-chloro-4-(trifluoromethyl)phenyl)-5-hydroxypicolinate]	0 to 29%
COC(=O)c1nc(-c2ncc(C(F)(F)F)cc2Cl)ccc1Cl [F101, methyl 3′,5-dichloro-5′-(trifluoromethyl)-[2,2′-bipyridine]-6-carboxylate]	0 to 29%

Same assay, conditions: post-emergence, 336 h, AMARE: redroot pigweed (Amaranthus retroflexus), 140 g ai/ha, 14 days after application, read-out: Visual Growth Reduction (%) 14 Days After Application, AMARE

SMILES	pest or weed control at 140 g/ha
COC(=O)c1nc(-c2ccc(C(F)(F)F)cc2Cl)c(O)cc1Cl [F34, methyl 3-chloro-6-(2-chloro-4-(trifluoromethyl)phenyl)-5-hydroxypicolinate]	0 to 29%
COC(=O)c1nc(-c2ncc(C(F)(F)F)cc2Cl)ccc1Cl [F101, methyl 3′,5-dichloro-5′-(trifluoromethyl)-[2,2′-bipyridine]-6-carboxylate]	95 to 100%

Same assay, conditions: post-emergence, 336 h, AVEFA: wild oat (Avena fatua), 140 g ai/ha, 14 days after application, read-out: Visual Growth Reduction (%) 14 Days After Application, AVEFA

SMILES	pest or weed control at 140 g/ha
COC(=O)c1nc(-c2ccc(C(F)(F)F)cc2Cl)c(O)cc1Cl [F34, methyl 3-chloro-6-(2-chloro-4-(trifluoromethyl)phenyl)-5-hydroxypicolinate]	0 to 29%
COC(=O)c1nc(-c2ncc(C(F)(F)F)cc2Cl)ccc1Cl [F101, methyl 3′,5-dichloro-5′-(trifluoromethyl)-[2,2′-bipyridine]-6-carboxylate]	0 to 29%

Same assay, conditions: post-emergence, 336 h, CHEAL: lambsquarters (Chenopodium album), 140 g ai/ha, 14 days after application, read-out: Visual Growth Reduction (%) 14 Days After Application, CHEAL

SMILES	pest or weed control at 140 g/ha
COC(=O)c1nc(-c2ccc(C(F)(F)F)cc2Cl)c(O)cc1Cl [F34, methyl 3-chloro-6-(2-chloro-4-(trifluoromethyl)phenyl)-5-hydroxypicolinate]	45 to 59%
COC(=O)c1nc(-c2ncc(C(F)(F)F)cc2Cl)ccc1Cl [F101, methyl 3′,5-dichloro-5′-(trifluoromethyl)-[2,2′-bipyridine]-6-carboxylate]	95 to 100%

Same assay, conditions: post-emergence, 336 h, CIRAR: canada thistle (Cirsium arvense), 140 g ai/ha, 14 days after application, read-out: Visual Growth Reduction (%) 14 Days After Application, CIRAR

SMILES	pest or weed control at 140 g/ha
COC(=O)c1nc(-c2ccc(C(F)(F)F)cc2Cl)c(O)cc1Cl [F34, methyl 3-chloro-6-(2-chloro-4-(trifluoromethyl)phenyl)-5-hydroxypicolinate]	0 to 29%
COC(=O)c1nc(-c2ncc(C(F)(F)F)cc2Cl)ccc1Cl [F101, methyl 3′,5-dichloro-5′-(trifluoromethyl)-[2,2′-bipyridine]-6-carboxylate]	85 to 94%

Same assay, conditions: post-emergence, 336 h, CYPES: yellow nutsedge (Cyperus esculentus), 140 g ai/ha, 14 days after application, read-out: Visual Growth Reduction (%) 14 Days After Application, CYPES

SMILES	pest or weed control at 140 g/ha
COC(=O)c1nc(-c2ccc(C(F)(F)F)cc2Cl)c(O)cc1Cl [F34, methyl 3-chloro-6-(2-chloro-4-(trifluoromethyl)phenyl)-5-hydroxypicolinate]	0 to 29%
COC(=O)c1nc(-c2ncc(C(F)(F)F)cc2Cl)ccc1Cl [F101, methyl 3′,5-dichloro-5′-(trifluoromethyl)-[2,2′-bipyridine]-6-carboxylate]	75 to 84%

Same assay, conditions: post-emergence, 336 h, DIGSA: crabgrass (Digitaria sanguinalis), 140 g ai/ha, 14 days after application, read-out: Visual Growth Reduction (%) 14 Days After Application, DIGSA

SMILES	pest or weed control at 140 g/ha
COC(=O)c1nc(-c2ccc(C(F)(F)F)cc2Cl)c(O)cc1Cl [F34, methyl 3-chloro-6-(2-chloro-4-(trifluoromethyl)phenyl)-5-hydroxypicolinate]	0 to 29%
COC(=O)c1nc(-c2ncc(C(F)(F)F)cc2Cl)ccc1Cl [F101, methyl 3′,5-dichloro-5′-(trifluoromethyl)-[2,2′-bipyridine]-6-carboxylate]	95 to 100%

Same assay, conditions: post-emergence, 336 h, ECHCG: barnyardgrass (Echinochloa crus-galli), 140 g ai/ha, 14 days after application, read-out: Visual Growth Reduction (%) 14 Days After Application, ECHCG

SMILES	pest or weed control at 140 g/ha
COC(=O)c1nc(-c2ccc(C(F)(F)F)cc2Cl)c(O)cc1Cl [F34, methyl 3-chloro-6-(2-chloro-4-(trifluoromethyl)phenyl)-5-hydroxypicolinate]	0 to 29%
COC(=O)c1nc(-c2ncc(C(F)(F)F)cc2Cl)ccc1Cl [F101, methyl 3′,5-dichloro-5′-(trifluoromethyl)-[2,2′-bipyridine]-6-carboxylate]	85 to 94%

Same assay, conditions: post-emergence, 336 h, IPOHE: ivy-leaf morning glory (Ipomoea hederacea), 140 g ai/ha, 14 days after application, read-out: Visual Growth Reduction (%) 14 Days After Application, IPOHE

SMILES	pest or weed control at 140 g/ha
COC(=O)c1nc(-c2ccc(C(F)(F)F)cc2Cl)c(O)cc1Cl [F34, methyl 3-chloro-6-(2-chloro-4-(trifluoromethyl)phenyl)-5-hydroxypicolinate]	0 to 29%
COC(=O)c1nc(-c2ncc(C(F)(F)F)cc2Cl)ccc1Cl [F101, methyl 3′,5-dichloro-5′-(trifluoromethyl)-[2,2′-bipyridine]-6-carboxylate]	95 to 100%

Same assay, conditions: post-emergence, 336 h, KCHSC: kochia (Bassia scoparia), 140 g ai/ha, 14 days after application, read-out: Visual Growth Reduction (%) 14 Days After Application, KCHSC

SMILES	pest or weed control at 140 g/ha
COC(=O)c1nc(-c2ccc(C(F)(F)F)cc2Cl)c(O)cc1Cl [F34, methyl 3-chloro-6-(2-chloro-4-(trifluoromethyl)phenyl)-5-hydroxypicolinate]	0 to 29%
COC(=O)c1nc(-c2ncc(C(F)(F)F)cc2Cl)ccc1Cl [F101, methyl 3′,5-dichloro-5′-(trifluoromethyl)-[2,2′-bipyridine]-6-carboxylate]	95 to 100%

Same assay, conditions: post-emergence, 336 h, ORYSA: rice (Oryza sativa), 140 g ai/ha, 14 days after application, read-out: Visual Growth Reduction (%) 14 Days After Application, ORYSA

SMILES	pest or weed control at 140 g/ha
COC(=O)c1nc(-c2ccc(C(F)(F)F)cc2Cl)c(O)cc1Cl [F34, methyl 3-chloro-6-(2-chloro-4-(trifluoromethyl)phenyl)-5-hydroxypicolinate]	0 to 29%
COC(=O)c1nc(-c2ncc(C(F)(F)F)cc2Cl)ccc1Cl [F101, methyl 3′,5-dichloro-5′-(trifluoromethyl)-[2,2′-bipyridine]-6-carboxylate]	0 to 29%

Same assay, conditions: post-emergence, 336 h, SETFA: giant foxtail (Setaria faberi), 140 g ai/ha, 14 days after application, read-out: Visual Growth Reduction (%) 14 Days After Application, SETFA

SMILES	pest or weed control at 140 g/ha
COC(=O)c1nc(-c2ccc(C(F)(F)F)cc2Cl)c(O)cc1Cl [F34, methyl 3-chloro-6-(2-chloro-4-(trifluoromethyl)phenyl)-5-hydroxypicolinate]	0 to 29%
COC(=O)c1nc(-c2ncc(C(F)(F)F)cc2Cl)ccc1Cl [F101, methyl 3′,5-dichloro-5′-(trifluoromethyl)-[2,2′-bipyridine]-6-carboxylate]	75 to 84%

Same assay, conditions: post-emergence, 336 h, SORVU: grain sorghum (Sorghum vulgare), 140 g ai/ha, 14 days after application, read-out: Visual Growth Reduction (%) 14 Days After Application, SORVU

SMILES	pest or weed control at 140 g/ha
COC(=O)c1nc(-c2ccc(C(F)(F)F)cc2Cl)c(O)cc1Cl [F34, methyl 3-chloro-6-(2-chloro-4-(trifluoromethyl)phenyl)-5-hydroxypicolinate]	0 to 29%
COC(=O)c1nc(-c2ncc(C(F)(F)F)cc2Cl)ccc1Cl [F101, methyl 3′,5-dichloro-5′-(trifluoromethyl)-[2,2′-bipyridine]-6-carboxylate]	95 to 100%

Same assay, conditions: post-emergence, 336 h, STEME: common chickweed (Stellaria media), 140 g ai/ha, 14 days after application, read-out: Visual Growth Reduction (%) 14 Days After Application, STEME

SMILES	pest or weed control at 140 g/ha
COC(=O)c1nc(-c2ccc(C(F)(F)F)cc2Cl)c(O)cc1Cl [F34, methyl 3-chloro-6-(2-chloro-4-(trifluoromethyl)phenyl)-5-hydroxypicolinate]	0 to 29%
COC(=O)c1nc(-c2ncc(C(F)(F)F)cc2Cl)ccc1Cl [F101, methyl 3′,5-dichloro-5′-(trifluoromethyl)-[2,2′-bipyridine]-6-carboxylate]	0 to 29%

Same assay, conditions: post-emergence, 336 h, TRZAS: wheat, spring (Triticum aestivum), 140 g ai/ha, 14 days after application, read-out: Visual Growth Reduction (%) 14 Days After Application, TRZAS

SMILES	pest or weed control at 140 g/ha
COC(=O)c1nc(-c2ccc(C(F)(F)F)cc2Cl)c(O)cc1Cl [F34, methyl 3-chloro-6-(2-chloro-4-(trifluoromethyl)phenyl)-5-hydroxypicolinate]	0 to 29%
COC(=O)c1nc(-c2ncc(C(F)(F)F)cc2Cl)ccc1Cl [F101, methyl 3′,5-dichloro-5′-(trifluoromethyl)-[2,2′-bipyridine]-6-carboxylate]	60 to 74%
